# Results: the NIST ThermoML archive (doi:10.1016/j.jct.2012.06.009)
# ± gives the expanded uncertainty stated by the source.
# Test: activity coefficient (dimensionless); of the first substance listed, at infinite dilution; xn = mol fraction of the nth substance listed
# Conditions: 101 kPa, Liquid, Chromatography, x1 = 0
Compound,activity coefficient (314.24 K),activity coefficient (333.26 K),activity coefficient (333.38 K),activity coefficient (353.3 K),activity coefficient (314.1 K),activity coefficient (340.19 K),activity coefficient (348.01 K),further results
CCCCO [butan-1-ol] + CCCCCCCCCCCCCCCC(=O)O,,,,,,1.65 ± 0.14,1.55 ± 0.13,activity coefficient (358.32 K): 1.43 ± 0.12
CCC(C)O (stereo unspecified) [butan-2-ol] + CCCCCCCCCCCCCC(=O)O,1.21 ± 0.1,1.12 ± 0.093,1.11 ± 0.092,1.04 ± 0.086,1.17 ± 0.097,,,activity coefficient (353.25 K): 1.05 ± 0.087
"CC(C)CC(C)(C)C [2,2,4-trimethylpentane] + CCCCCCCCCCCCCCCC(=O)O",,,,,,1.5 ± 0.13,1.46 ± 0.12,activity coefficient (358.32 K): 1.42 ± 0.12
"CC(C)CC(C)(C)C [2,2,4-trimethylpentane] + CCCCCCCCCCCCCC(=O)O",,,,,,,,activity coefficient (338.27 K): 1.53 ± 0.13; activity coefficient (348.3 K): 1.5 ± 0.13; activity coefficient (358.33 K): 1.45 ± 0.12
CCCCO [butan-1-ol] + CCCCCCCCCCCCCC(=O)O,1.54 ± 0.13,1.45 ± 0.12,1.42 ± 0.12,1.32 ± 0.12,1.49 ± 0.13,,,activity coefficient (353.25 K): 1.22 ± 0.11
Cc1ccccc1 [toluene] + CCCCCCCCCCCCCCCC(=O)O,,,,,,0.934 ± 0.077,0.935 ± 0.077,activity coefficient (358.22 K): 0.934 ± 0.077

# Now from value to compound, other results behind:
activity coefficient (314.24 K),activity coefficient (333.26 K),activity coefficient (333.38 K),activity coefficient (353.3 K),activity coefficient (314.1 K),activity coefficient (340.19 K),activity coefficient (348.01 K),Compound,further results
1.92 ± 0.17,1.73 ± 0.15,1.71 ± 0.15,1.56 ± 0.13,,,,CO [methanol] + CCCCCCCCCCCCCC(=O)O,activity coefficient (338.29 K): 2 ± 0.17; activity coefficient (358.31 K): 1.6 ± 0.14
0.846 ± 0.07,0.85 ± 0.071,0.827 ± 0.069,0.825 ± 0.069,0.823 ± 0.069,,,ClC(Cl)Cl [trichloromethane] + CCCCCCCCCC(=O)O,
,,,,,1.74 ± 0.15,1.63 ± 0.14,CCCO [propan-1-ol] + CCCCCCCCCCCCCCCC(=O)O,activity coefficient (358.32 K): 1.5 ± 0.13
,1.67 ± 0.14,,1.58 ± 0.13,1.81 ± 0.15,,,CO [methanol] + CCCCCCCCCCCC(=O)O,activity coefficient (328.82 K): 1.9 ± 0.16; activity coefficient (343.65 K): 1.66 ± 0.14
2.07 ± 0.18,1.73 ± 0.15,1.78 ± 0.15,1.48 ± 0.12,2.12 ± 0.18,,,CCO [ethanol] + CCCCCCCCCC(=O)O,
,,,,,0.748 ± 0.063,0.739 ± 0.063,ClC(Cl)Cl [trichloromethane] + CCCCCCCCCCCCCCCC(=O)O,activity coefficient (358.22 K): 0.759 ± 0.064
